Data on one compound can be found in EP4548971A1, “1,4-BENZOTHIAZEPINES AND RELATED COMPOUNDS WITH CYCLOPROPANOL GROUPS AS MULTI-TARGETED DRUGS” (Georg-August-Universität Göttingen Stiftung Öffentlichen …, priority 2023, dated 2025).

Entries after “also recorded” stand apart in the source; their conditions may differ.

One data set addresses T1, SERCA2a (Mus musculus, UniProt O55143).
T1 construct: host or cells: HL-1 cardiac cells
In words: Caffeine-induced Ca2+ release assay on HL-1 cells. Format: cell-based. Details: key to SERCA2a HL-1 effect class: +++: a strong effect, comparable to or greater than that of a known compounds at a given concentration (25 µM in RyR2 R-CEPIA1er assay, 10 µM in caffeine assay and on microsomal membrane vesicles); ++: moderate effect; +: observable effect; -: no effect. As to the method: HL-1 cardiac cells (SCC065, Merck KGaA, Darmstadt, Germany) were cultivated in Claycomb's Medium (51800C, Merck KGaA, Darmstadt, Germany), supplemented with Glutamax, 10% fetal bovine serum, 0.9% Penicillin/Streptomycin and 0.1 mM Noradrenaline (Merck KGaA, Darmstadt, Germany) on fibronectin/gelatin (Merck KGaA, Darmstadt, Germany) coated culture bottles or plates two days before plating.
HL-1 cardiac cells (50000 per well) were cultivated for 24 h in black-walled, clear-bottom 96-well micro-plates (Corning, Amsterdam, The Netherlands) covered with fibronectin/gelatin (Merck KGaA, Darmstadt, Germany) in a humidified incubator at 37 °C and 5% CO2.
Changes in Ca^2+ concentration were measured on a multiwell plate reader TECAN Spark 20M using FLIPR 6 Calcium Assay Kit from Molecular Devices (Molecular Devices LLC, München, Germany) at 37 °C. The 1000 × stock solutions of the test compounds were prepared in DMSO. 100 µl solution of test compound in Tyrode's solution containing FLIPR Calcium 6 dye was incubated for 2 hours at 37°C and 5% COz in a humidified incubator. The time courses were recorded in each well. Fluorescence was evoked at 485 nm excitation wavelength and read out in a bottom-read mode at 525 nm. Data were recorded every 2 s, exposure - 20 flashes, excitation bandwidth - 10 nm, emission bandwidth - 15 nm. To initiate Ca^2+ influx, 25 µl of 50 mM caffeine solution in Tyrode's solution containing 2 mM CaCl2 was injected in each well (speed 100 µl/s) at 10 s time point, resulting in 10 mM final concentration in the well. The differences between the caffeine induced peak minus basal fluorescence, ΔFCaff, were taken for the analysis. The Tyrode's solution + 0.1 v/v% DMSO was used as a control. The dose response curves were calculated using the software package GraphPad Prism version 8.3.1. All data are presented as mean ± S.D. from 8 independent experiments. Y=Bottom + (Top-Bottom)/(1+10^((LogEC50-X)*HillSlope)) was used where HillSlope describes the steepness of the curve, Top and Bottom are plateaus in the units of the Y axis.
The SERCA2a activity of the compounds was confirmed in two orthogonal biochemical assays: caffeine-induced Ca^2+ release assay and nicotinamide adenine dinucleotide (NADH) assay on microsomal membrane vesicles from mouse heart ventricles (mouse SER) and HEK-293T cells (HEK-293 ER). The effect of caffeine-induced Ca^2+ release in HL-1 cells, immortalized mouse cardiomyocytes, treated with the cytosolic Ca^2+ indicator FLIPR Calcium 6 (Molecular Devices) was investigated.
When caffeine binds to the RyR channel, it interacts with specific amino acids of the protein, and this interaction causes conformational changes in the protein's structure [A. des Georges, O. B. Clarke, R. Zalk, Q. Yuan, K. J. Condon, R. A. Grassucci, W. A. Hendrickson, A. R. Marks, J. Frank, Structural Basis for Gating and Activation of RyR1. Cell 2016, 167, 145 - 157.e17]. This opens the RyR2 channel pore, enabling the mass release of calcium ions from the SER Ca^2+ store.

The subject of another data set is HL-1 cardiac cells. In words: CytoTox-Glo cytotoxicity assay (cell viability). It counts as cell-based. As to conditions: CytoTox-Glo assay in 100 µM solutions after 24 h incubation. As to the method:
Cell viability was assessed using CytoTox-Glo™ Cytotoxicity Assay according to the manufacturing procedure (Promega GmbH). Briefly, HL-1 cardiac cells were cultivated for 24 h in black-walled, clear-bottom 96-well micro-plates (Corning) covered with fibronectin in DMEM, containing different concentrations of the tested compound (10,000 cells/well). Luminescence of a luminogenic peptide substrate was measured before and after addition of the lysis reagent (digitonin). The viable cell contribution was determined by a subtractive method. 0.1% DMSO treated cell were taken as a control.
(§1) The membrane permeability of the derivatives was determined using cell-free transport models (PermeaPad®, innoME GmbH), and permeability rates (Pe), which are a measure of how fast a compound can cross a membrane, were established (Table 1).

A short description of data set [1]: Membrane permeability, PermeaPad plate (cell-free transport model). Format: in vitro ADME. As to the method:
Membrane permeability was assessed using PermeaPad® Plate according to the manufacturing procedure (innoME GmbH, Espelkamp, Germany). Briefly, 200 µl water was added into acceptor plate. 200 µl of 100 - 500 µM test compound in water was added directly to the well membranes of the donor plate. The donor plate contains a biomimetic membrane for simulating passive mass transfer through different barriers in the body. Then the donor plate was placed into the acceptor plate wells and incubated at room temperature for 24 hours in dark. To determine peak absorbance of test compounds, absorbance spectra of acceptor solutions and initial solutions for each test compound were read out. The Permeability Rate (Pe) was calculated using the formula: Pe = C × −ln(1−(ODA)/(ODE)) cm/s, [formula]
where ODA is the absorbance of acceptor solution, ODE is the absorbance of the standard solution; if the compound is able to permeabilize the membrane and fully reach equilibrium, 250 µM will be the final concentration of solution in the donor and acceptor wells. The coefficient C was calculated using the formula: C = (VD × VA)/((VD+VA) × Area × time), [formula] where VA - acceptor volume (cm^3), VD - donor volume (cm^3), membrane area 0.24 cm^2, time is 86,400 s.
as §1

T1 sequence (O55143 1-998 isoform O55143-2): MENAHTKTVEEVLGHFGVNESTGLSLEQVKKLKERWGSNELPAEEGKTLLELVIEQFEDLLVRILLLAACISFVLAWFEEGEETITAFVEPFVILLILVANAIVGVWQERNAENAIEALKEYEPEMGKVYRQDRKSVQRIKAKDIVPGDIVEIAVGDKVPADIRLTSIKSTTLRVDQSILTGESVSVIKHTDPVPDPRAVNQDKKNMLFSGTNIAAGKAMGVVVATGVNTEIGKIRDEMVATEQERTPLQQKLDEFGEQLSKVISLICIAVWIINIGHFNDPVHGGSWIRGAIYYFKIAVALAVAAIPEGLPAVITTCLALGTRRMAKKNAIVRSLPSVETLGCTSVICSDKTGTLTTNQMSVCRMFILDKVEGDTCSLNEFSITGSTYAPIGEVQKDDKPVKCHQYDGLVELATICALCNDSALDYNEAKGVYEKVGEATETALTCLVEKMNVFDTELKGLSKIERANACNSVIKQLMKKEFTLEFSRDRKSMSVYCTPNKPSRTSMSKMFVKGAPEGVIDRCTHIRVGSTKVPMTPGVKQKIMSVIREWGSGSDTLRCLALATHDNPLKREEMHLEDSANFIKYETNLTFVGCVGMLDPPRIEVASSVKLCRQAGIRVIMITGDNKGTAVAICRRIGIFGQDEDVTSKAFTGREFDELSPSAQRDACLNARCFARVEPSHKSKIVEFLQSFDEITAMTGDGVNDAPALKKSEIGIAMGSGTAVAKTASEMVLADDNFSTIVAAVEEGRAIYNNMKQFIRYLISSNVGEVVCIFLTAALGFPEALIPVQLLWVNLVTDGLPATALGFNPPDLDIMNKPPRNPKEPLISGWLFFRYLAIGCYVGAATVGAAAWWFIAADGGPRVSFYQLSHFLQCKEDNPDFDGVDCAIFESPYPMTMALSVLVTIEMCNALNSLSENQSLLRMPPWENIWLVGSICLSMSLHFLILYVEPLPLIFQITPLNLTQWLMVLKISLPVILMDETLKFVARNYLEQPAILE

Turning to `COc1ccc2c(c1)CN(C)CCS2` [Compound S107, reference compound], the “SERCA2a HL-1 effect class” value on SERCA2a (10 µM in caffeine assay) is on record as “-”. In addition, the “effect in caffeine-induced Ca^2+ release assay, in words” value on SERCA2a (HL-1 cells incubated 2 h with compound, 10 mM caffeine) is reported as “no concentration dependent effect; also recorded: didn't show any effects on SR Ca^2+ content”. Also, the Viability in the data set on HL-1 cardiac cells came out at 98%. In data set [1], the “Pe rating in words (low / medium / high; poor)” value is reported as “medium”. Besides, the Pe in data set [1] (permeability rate, room temperature, 24 hours) was 1.2 10^-6 cm/s.
